Data on 2 compounds can be found in patent publication US20110318393A1, “Substituted Pyrazole Compounds” (MIIKANA THERAPEUTICS, INC., priority 2008, published 2011).

Where only a bound is given, the exact number is not on record here.

Test [1] has as its target T1, recombinant Aurora A (Homo sapiens, UniProt O14965).
T1 construct: purchased Upstate, Lake Placid, N.Y
T1 sequence (O14965 1-403): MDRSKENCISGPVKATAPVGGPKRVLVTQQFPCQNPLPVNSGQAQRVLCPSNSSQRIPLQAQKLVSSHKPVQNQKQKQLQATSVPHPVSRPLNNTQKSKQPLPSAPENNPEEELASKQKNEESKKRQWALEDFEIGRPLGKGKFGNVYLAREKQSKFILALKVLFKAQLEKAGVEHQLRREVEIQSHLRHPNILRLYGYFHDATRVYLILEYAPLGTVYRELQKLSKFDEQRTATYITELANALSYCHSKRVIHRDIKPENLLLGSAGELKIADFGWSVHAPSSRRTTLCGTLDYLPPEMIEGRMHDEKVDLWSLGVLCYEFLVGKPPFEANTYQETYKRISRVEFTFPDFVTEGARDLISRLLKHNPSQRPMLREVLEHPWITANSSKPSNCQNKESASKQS
The test is described as follows: Aurora A (Aurora 2) inhibition assay, Z'-Lyte kinase assay. Format: biochemical. Particulars: ATP 10 μM, 1 h; less than or equal to 100 nM. Here is the method:
Compounds were tested for their potency against recombinant Aurora A (Upstate, Lake Placid, N.Y.) using the PanVera Z′-Lyte kinase assay kit-Ser/Thr 1 peptide (Invitrogen, Carlsbad, Calif.). Assays were carried out in kinase assay buffer (50 mM HEPES, pH 7.5, 10 mM MgCl2, 5 mM EGTA, 0.05% Brij-35, 2 mM DTT). Test compounds were initially dissolved in DMSO at 100× the highest tested concentration, then serially diluted to 4× test concentrations in kinase assay buffer. Next, Aurora A (final concentration 200-500 ng/mL), Z′-Lyte Ser/Thr 1 peptide (final concentration 2 μM) and ATP (final concentration 10 μM) were added according to the manufacturer's instructions. Assays were carried out in half-area 96-well white polystyrene assay plates (Corning, Corning, N.Y.) in a final volume of 20 μl. The reaction was allowed to proceed for 1 h at room temperature in the dark, at which point the development reagent and stop reagent were added according to the manufacturer's instructions. Coumarin (Ex. 400 nm, Em. 465 nm) and fluorescein (Ex. 400 nm, Em. 565 nm) fluorescence values were measured on a SpectraFluor Plus plate reader (Tecan, Durham, N.C.). The emission ratio (coumarin/fluorescein) was determined and used to calculate the percent phosphorylation for each well. Wells containing substrate but no kinase and wells containing a phosphopeptide control were used to set 0% and 100% phosphorylation values, respectively. Typically 20-40% of the substrate was phosphorylated in wells without inhibitor. Dose-response curves of relative Aurora A activity vs. inhibitor concentration were plotted with Grafit (Erithacus Software, Horley, Surrey, UK).

Test [2] deals with T2, N-terminal GST-tagged recombinant human Flt3, residues 564-end (Homo sapiens, UniProt P36888).
T2 construct: recombinant human Flt3, residues 564-end; GST (N); purchased Upstate USA Inc, Charlottesville, Va
T2 sequence (P36888 564-993 limits assumed): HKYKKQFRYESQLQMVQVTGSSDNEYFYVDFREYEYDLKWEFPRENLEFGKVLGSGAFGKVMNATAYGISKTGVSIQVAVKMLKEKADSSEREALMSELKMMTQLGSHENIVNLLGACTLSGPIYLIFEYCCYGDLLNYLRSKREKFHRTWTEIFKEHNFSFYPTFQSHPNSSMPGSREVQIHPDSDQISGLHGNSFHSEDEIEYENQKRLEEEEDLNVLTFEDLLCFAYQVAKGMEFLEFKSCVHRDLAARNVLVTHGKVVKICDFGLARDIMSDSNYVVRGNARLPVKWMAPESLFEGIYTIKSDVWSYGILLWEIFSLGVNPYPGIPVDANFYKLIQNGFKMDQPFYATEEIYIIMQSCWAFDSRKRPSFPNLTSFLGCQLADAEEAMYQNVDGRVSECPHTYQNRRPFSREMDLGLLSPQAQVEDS
The test is described as follows: Flt3 kinase inhibition assay (33P-ATP filter assay). Format: biochemical. Particulars: 40 minutes, room temperature; less than or equal to 100 nM. The protocol:
Compounds were assayed for Flt3 kinase inhibitory activity using N-terminal GST-tagged recombinant human Flt3, residues 564-end (Upstate USA Inc, 706 Forest Street, Charlottesville, Va.). Serial dilutions of compound were assayed in a final reaction volume of 25 μL by incubating a solution of the above Flt3 kinase (5-10 mU), 8 mM MOPS (3-(N-morpholino)propanesulfonic acid) pH 7.0, 0.2 mM EDTA (ethylenediamine tetracetic acid), 50 μM amino acid sequence EAIYAAPFAKKK (Upstate USA Inc, 706 Forest Street, Charlottesville, Va.), and 10 mM magnesium acetate and [γ-^33P-ATP] (specific activity of about 500 cpm/pmol, concentration as required). The reaction was initiated by the addition of the magnesium acetate and [γ-^33P-ATP] mixture. After incubation for 40 minutes at room temperature, the reaction was stopped by the addition of 5 μL of a 3% phosphoric acid solution. A 10 μL aliquote of the reaction was then spotted onto a P30 filtermat (PerkinElmer, Wellesley, Mass.) and washed three times for five minutes in 75 mM phosphoric acid and once in methanol prior to drying and scintillation counting. Inhibition of Flt3 activity was determined by comparison to assays that contained no inhibitor.

As to `Cc1cc(Nc2cc(N3CCC(N4CCCCC4)CC3)nc(/C=C/c3ccccc3)n2)n[nH]1` [Compound 5, (E)-6-(1,4′-bipiperidin-1′-yl)-N-(5-methyl-1H-pyrazol-3-yl)-2-styrylpyrimidin-4-amine], the IC50 in test [1] and in test [2] was no more than 100 nM each time.

As to `Cc1cc(Nc2cc(N3CCN(c4ccncc4)CC3)nc(/C=C/c3ccccc3)n2)n[nH]1` [Compound 22, (E)-N-(5-methyl-1H-pyrazol-3-yl)-6-(4-(pyridin-4-yl)piperazin-1-yl)-2-styrylpyrimidin-4-amine], the IC50 in test [1] and in test [2] was no more than 100 nM throughout.
